Experimental data from paper PMC6983023, “Identification of Potential Dipeptidyl Peptidase (DPP)-IV Inhibitors among Moringa oleifera Phytochemicals by Virtual Screening, Molecular Docking Analysis, ADME/T-Based Prediction, and In Vitro Analyses” (Molecules, 2020).

Tests used:
[1] = set-up: method as in doi:10.1002/ptr.2650080207; details: cited from earlier work
[2] = target: T1, DPP-IV (Homo sapiens, UniProt P27487); test: In vitro DPP-IV inhibition assay (fluorescence, Abnova kit KA1311); type: biochemical; details: for inhibition at 100 µM: compound concentration 100 μM, read-out: inhibition rate; for IC50: fluorescence detection, 37 °C, 30 min
T1 construct: purchased Abnova Co. Ltd. (Taipei, Taiwan) KA1311
T1 sequence (P27487 whole entry): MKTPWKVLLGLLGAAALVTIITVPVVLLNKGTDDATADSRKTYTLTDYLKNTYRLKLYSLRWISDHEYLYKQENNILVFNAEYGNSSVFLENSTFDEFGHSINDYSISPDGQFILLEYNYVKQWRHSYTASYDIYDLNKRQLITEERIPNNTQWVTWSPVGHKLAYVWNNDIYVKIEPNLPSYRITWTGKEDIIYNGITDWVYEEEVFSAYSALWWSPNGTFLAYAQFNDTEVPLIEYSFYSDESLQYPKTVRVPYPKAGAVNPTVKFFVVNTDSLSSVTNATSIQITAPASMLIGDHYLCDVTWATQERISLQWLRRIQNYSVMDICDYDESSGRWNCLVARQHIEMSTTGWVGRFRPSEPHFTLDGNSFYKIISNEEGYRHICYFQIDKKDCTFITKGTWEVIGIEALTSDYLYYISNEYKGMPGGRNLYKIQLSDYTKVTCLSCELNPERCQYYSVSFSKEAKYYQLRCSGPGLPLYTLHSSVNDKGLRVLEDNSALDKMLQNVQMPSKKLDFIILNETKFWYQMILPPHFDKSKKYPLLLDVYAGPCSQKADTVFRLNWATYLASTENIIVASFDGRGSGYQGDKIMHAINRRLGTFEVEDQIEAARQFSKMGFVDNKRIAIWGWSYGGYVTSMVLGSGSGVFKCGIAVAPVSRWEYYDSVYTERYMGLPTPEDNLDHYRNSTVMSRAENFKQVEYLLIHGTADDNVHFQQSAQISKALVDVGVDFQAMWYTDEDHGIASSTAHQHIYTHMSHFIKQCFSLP
Protocol: A DPP-IV Inhibitor Screening Assay Kit (KA1311) was purchased from Abnova Co. Ltd. (Taipei, Taiwan). […] The in vitro inhibitory activity of each compound against DPP-IV was determined based on a fluorescence detection method. […] Additionally, a “100% initial activity well” (10 μL dimethyl sulfoxide [DMSO], 30 μL DPP assay buffer, and 10 μL DPP-IV) and a “background well” (10 μL DMSO and 40 μL DPP assay buffer) were prepared. Next, 50 μL of DPP was added to each well and incubated at 37 °C for 30 min. A FlexStation 3 multifunctional microplate reader (Molecular Devices, Sunnyvale, CA, USA) was used to detect the fluorescence value (excitation wavelength: 350–360 nm; emission wavelength: 450–465 nm). […] IC50 values were then calculated using GraphPad Prism 5 (GraphPad Software, La Jolla, CA, USA).

[3] = test system: arthritis in rats; set-up: method as in PMID 11440138; details: cited from earlier work
[4] = test system: Cathepsin B; set-up: method as in PMID 11440138; details: cited from earlier work
[5] = test system: Cathepsin L; set-up: method as in PMID 11440138; details: cited from earlier work
[6] = test system: c-Jun N-terminal kinase (JNK) and p38 pathways; set-up: method as in PMID 25448500; details: induced by LPS stimulation; cited from earlier work

SMILES | hypotensive effect [1] | inhibition at 100 µM [2] [%] | IC50 [2] [µM] | effect on arthritis [3] | Cathepsin B inhibition [4] | Cathepsin L inhibition [5] | inhibition of JNK and p38 pathways [6]
CCOC(=O)NCc1ccc(O[C@@H]2O[C@@H](C)[C@H](O)[C@@H](O)[C@H]2O)cc1 [Compound 1, O-Ethyl-4-[(α-L-rhamnosyloxy)benzyl] carbamate] | a certain hypotensive effect | 71.2 | 0.798 |  |  |  | 
C[C@@H]1O[C@@H](Oc2ccc(CN=C=S)cc2)[C@H](O)[C@H](O)[C@H]1O [Compound 2, 4-[(α-L-rhamnosyloxy)benzyl] Isothiocyanate] |  | 30.9 | 158 |  |  |  | 
CC(=O)OC[C@H](Cc1ccccc1)NC(=O)[C@H](Cc1ccccc1)NC(=O)c1ccccc1 [Compound 3, Aurantiamide acetate] |  | 23.5 | 191 | relieves arthritis | inhibiting | inhibiting | inhibit
